{
  "source": "patent US11274332B2",
  "about": "“Methods of administering 3,4-diaminopyridine” (SERB SA, priority 2011, dated 2022)",
  "experiment": "Bioavailability/bioequivalence study of 3,4-DAP phosphate salt vs free base in healthy subjects (Example A)",
  "assay_type": "in vivo, human",
  "protocol": "The primary objectives of the study were to evaluate the clinical tolerance of a single 10 mg dose (equivalent base) oral intake of 3,4-DAP salt in five healthy subjects and to determine the relative bioequivalence of a single 20 mg oral dose of 3,4-DAP administered as a salt or as a free base to 26 healthy subjects. The secondary objectives were to study pharmacokinetic parameters (elimination half and elimination constant), to compare the biological tolerance of both a 20 mg oral intake of 3,4-DAP as a free base and as a salt, and to measure QTcf intervals at expected Cmax.\nThis was an open and uncontrolled study of the clinical tolerance to a low dose of the phosphate salt. Subjects were hospitalized from 8 am to 4 pm after fasting since midnight the previous night. At 8:30 am, one 10 mg 3,4-DAP phosphate tablet was administered with a glass of water in the presence of a supervising nurse. During their 8-hour stay, heart rate was continuously monitored, blood pressure was measured on eight occasions (including baseline) and three urine samples were taken.\nThis was a double-blind, randomized 2-way cross-over trial. The two administration periods were separated by a wash-out of at least 3 days and not more than 10 days. At the beginning of each period, subjects were hospitalized at 8 am (while fasting since midnight) for at least 12 hours. At their arrival a urinary sample was taken and avenous catheter was inserted into an antecubital vein. A first blood sample was drawn 15 min before drug intake. At around 8:30 am drug was administered (as the phosphate salt or free base according to randomization) with a glass of water under the supervision of a nurse and subjects remained seated for 15 min. Group A received two 10 mg tablets of 3,4-DAP phosphate. Group B received two 10 mg capsules of 3,4-DAP as a free base.\nTwo 5 mL blood samples were drawn at the following times after drug administration: 5 min, 10 min, 15 min, 20 min, 30 min, 45 min, 60 min, 75 min, 90 min, 120 min, 240 min, 360 min, 480 min, and 660 min. At each sampling time two 5 mL samples were drawn on […] heparinized tubes. They were immediately centrifuged at room temperature. Serum was then separated and dispatched into three clearly identified aliquots which were frozen at −20° C. […]\n12-lead ECGs (50 mm/s, 2 cm/mV) were recorded over 1 minute three times prior to drug intake (HR-RR, QT and QTcf were averaged to determine baseline values) and then at 15, 20, 30, 45, 60, 75, 90, 120, and 240 min post dose. ECG parameters were recorded by using Cardionics™ ECG/VCG software (version 3.3.0). Blood pressure was measured at 120 min post dosing. […]\nAn HPLC-electrochemical detection system was used to assay 3,4-DAP in serum samples. […] The extracted sample was analyzed by HPLC coupled with coulemetric detection. […]",
  "data": [
    {"smiles": "Nc1ccncc1N", "note": "[3,4-DAP, 3,4-diaminopyridine]", "values": [
      {"measurement": "differences in Cmax, AUC and t1/2 between subjects", "setting": "between patients", "value": "up to 10 fold"},
      {"measurement": "Cmax", "setting": "human, serum, as the phosphate salt, 20 mg oral, read-out: Cmax, range between patients", "value": "13 to 167", "unit": "ng/mL"},
      {"measurement": "half-life", "setting": "human, serum, phosphate salt or free base, 20 mg oral", "value": "< 2.6", "unit": "h"},
      {"measurement": "coefficient of variations for AUCs and Cmax", "setting": "phosphate salt or free base, 20 mg oral", "value": "exceeding 30%"}
    ]}
  ]
}
